Laboratory results: patent publication US20250222146A1, “Radiopharmaceuticals Targeting Somatostatin Receptor 2 and Uses Thereof” (RayzeBio, Inc., priority 2023, published 2025)
Numbered stars: 1 amine (or outer) side, 2 acyl side, 3 side chain; on linkers, the order of the positions; unused ones are H or OH. Square brackets hold non-standard residues; d marks the D form. Peptide text beside a SMILES is read from it. * marks the point of attachment. DOTA(Lu)NH(CH2)6NHCOCH2 = O=C(CN1CCN2CCN3CCN(CC1)CC(=O)[O][Lu]([O]C(=O)C2)[O]C(=O)C3)NCCCCCCNC(=O)C*; dTrp(βS-Me) = C[C@@H](c1c[nH]c2ccccc12)[C@@H](N)C(=O)O; Phe(3-CONH2) = NC(=O)c1cccc(C[C@H](N)C(=O)O)c1; X4 = C[C@@H](c1ccccc1)[C@H](N[*:1])C(=O)[*:2]; Phe(2-CONH2) = NC(=O)c1ccccc1C[C@H](N)C(=O)O; Phe(3R-Me) = C[C@H](c1ccccc1)[C@H](N)C(=O)O; Tyr(3-F) = N[C@@H](Cc1ccc(O)c(F)c1)C(=O)O; X21 = CC(c1ccccc1)[C@H](N[*:1])C(=O)[*:2]; X22 = O=C([C@H](Cc1ccc(O)nc1)N[*:1])[*:2]; 3Pal = N[C@@H](Cc1cccnc1)C(=O)O; 4Pal = N[C@@H](Cc1ccncc1)C(=O)O; NMehCys = CN[C@@H](CCS)C(=O)O

Target: SSTR2 (Homo sapiens, UniProt P30874)
Sequence (P30874 whole entry): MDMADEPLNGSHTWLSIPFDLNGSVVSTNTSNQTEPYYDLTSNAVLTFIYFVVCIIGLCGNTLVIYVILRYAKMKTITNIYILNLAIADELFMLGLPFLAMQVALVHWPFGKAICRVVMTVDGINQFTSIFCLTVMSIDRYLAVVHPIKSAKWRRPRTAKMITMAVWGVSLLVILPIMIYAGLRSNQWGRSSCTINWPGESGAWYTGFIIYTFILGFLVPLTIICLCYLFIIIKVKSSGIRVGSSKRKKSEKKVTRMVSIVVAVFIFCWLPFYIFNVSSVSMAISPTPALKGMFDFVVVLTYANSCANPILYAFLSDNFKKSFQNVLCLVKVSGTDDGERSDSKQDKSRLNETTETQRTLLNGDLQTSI
Experiment: SSTR binding affinity by radioligand binding competition assay ([125I]-Tyr11-Somatostatin, membrane extracts)
Details: SSTR2 Ki, radioligand competition, [125I]-Tyr11-Somatostatin 0.1 nM, membrane extracts; Ki from IC50 by Cheng Prusoff
Procedure: Macrocyclic peptides in this invention were tested for binding to SSTR protein by a radioligand binding competition assay. For radioligand binding assay, competition binding is performed in duplicate in the wells of a 96 well plate containing binding buffer (HEPES 25 mM pH 7.4, MgCl2 5 mM, CaCl2 1 mM, BSA 0.5%, Saponine 10 μg/ml)), membrane extracts (0.6 μg protein/well), radiotracer ([125I]-Tyr11-Somatostatin, Perkin Elmer NEX389) and test compound. Nonspecific binding is determined by co-incubation with 200-fold excess of cold competitor (SST28). The samples are incubated in a final volume of 0.1 ml for 60 min at room temperature and then filtered over UniFilter-96 GF/C (Revvity 6055690) filter plates. Filters are washed six times with 0.5 ml of ice-cold washing buffer (HEPES 25 mM pH 7.4, MgCl2 5 mM, CaCl2 1 mM) and 50 μl of Microscint 20 (Packard) are added in each well. The plates are incubated 15 min on an orbital shaker and then counted with a TopCount™ for 1 min/well. For IC50 to Ki determination, the Cheng Prusoff equation is used: Ki=IC50/(1+ [tracer]/Kd). [Tracer] is 0.1 nM as mentioned above.

SMILES | Ki
C[C@@H](O)[C@@H]1NC(=O)[C@H](CCCCN)NC(=O)[C@@H](Cc2c[nH]c3ccccc23)NC(=O)[C@H](Cc2ccc(O)cc2)NC(=O)[C@H](CSCC(=O)NCCCCCCNC(=O)CN2CCN3CCN4CCN(CC2)CC(=O)[O][Lu]([O]C(=O)C3)[O]C(=O)C4)N(C)C(=O)[C@H](Cc2ccccc2)NC1=O [RB-0003164] | 1 to 3.33 nM
C[C@@H](O)[C@@H]1NC(=O)[C@H](CCCCN)NC(=O)[C@@H](Cc2c[nH]c3ccccc23)NC(=O)[C@H](Cc2ccc(O)cc2)NC(=O)[C@H](CCCCNC(=O)[C@H]2CC[C@H](CNC(=O)CN3CCN4CCN5CCN(CC3)CC(=O)[O][Lu]([O]C(=O)C4)[O]C(=O)C5)CC2)N(C)C(=O)[C@H](Cc2ccccc2)NC1=O [RB-0003246] | 1 to 3.33 nM
C[C@@H](O)[C@@H]1NC(=O)[C@H](CCCCN)NC(=O)[C@@H](Cc2c[nH]c3ccccc23)NC(=O)[C@H](Cc2ccc(O)cc2)NC(=O)[C@H](CCCCNC(=O)COCCOCCOCCNC(=O)CN2CCN3CCN4CCN(CC2)CC(=O)[O][Lu]([O]C(=O)C3)[O]C(=O)C4)N(C)C(=O)[C@H](Cc2ccccc2)NC1=O [RB-0003248] | 3.33 to 10 nM
C[C@@H](O)[C@@H]1NC(=O)[C@H](CCCCN)NC(=O)[C@@H](Cc2c[nH]c3ccccc23)NC(=O)[C@H](Cc2ccc(O)cc2)NC(=O)[C@H](CCCCNC(=O)CN2CCN3CCN4CCN(CC2)CC(=O)[O][Lu]([O]C(=O)C3)[O]C(=O)C4)N(C)C(=O)[C@H](Cc2ccccc2)NC1=O [RB-0003292] | < 1 nM
C[C@@H](O)[C@@H]1NC(=O)[C@H](CCCCN)NC(=O)[C@@H](Cc2c[nH]c3ccccc23)NC(=O)[C@H](Cc2ccc(O)cc2)NC(=O)[C@H](CCCCNC(=O)COCCOCCNC(=O)CN2CCN3CCN4CCN(CC2)CC(=O)[O][Lu]([O]C(=O)C3)[O]C(=O)C4)N(C)C(=O)[C@H](Cc2ccccc2)NC1=O [RB-0003294] | 1 to 3.33 nM
C[C@@H](O)[C@@H]1NC(=O)[C@H](CCCCN)NC(=O)[C@@H](Cc2c[nH]c3ccccc23)NC(=O)[C@H](Cc2ccc(O)cc2)NC(=O)[C@H](CCCCNC(=O)CCCCCCCNC(=O)CN2CCN3CCN4CCN(CC2)CC(=O)[O][Lu]([O]C(=O)C3)[O]C(=O)C4)N(C)C(=O)[C@H](Cc2ccccc2)NC1=O [RB-0003296] | 1 to 3.33 nM
C[C@@H](O)[C@@H]1NC(=O)[C@H](CCCCN)NC(=O)[C@@H](Cc2c[nH]c3ccccc23)NC(=O)[C@H](Cc2ccc(O)cc2)NC(=O)[C@H](CCCCNC(=O)CCCCC[C@H](NC(=O)CN2CCN3CCN4CCN(CC2)CC(=O)[O][Lu]([O]C(=O)C3)[O]C(=O)C4)C(=O)O)N(C)C(=O)[C@H](Cc2ccccc2)NC1=O [RB-0003298] | 3.33 to 10 nM

Same assay, conditions: radioligand competition, [125I]-Tyr11-Somatostatin 0.1 nM, membrane extracts; Ki from IC50 by Cheng Prusoff; read-out: SSTR2 Ki

SMILES | Ki
C[C@@H](O)[C@@H]1NC(=O)[C@H](CCCCN)NC(=O)[C@@H](Cc2c[nH]c3ccccc23)NC(=O)[C@H](Cc2ccncc2)NC(=O)[C@H](CCSCC(=O)NCCCCCCNC(=O)CN2CCN3CCN4CCN(CC2)CC(=O)[O][Lu]([O]C(=O)C3)[O]C(=O)C4)N(C)C(=O)[C@H](Cc2ccccc2)NC1=O [RB-0003002] (cyclo([4Pal][dW]KTF[NMehCys](DOTA(Lu)NH(CH2)6NHCOCH2))) | < 1 nM
CCN(C)CC(=O)[O][Lu]1[O]C(=O)CN(C)CCN(CCN(CC)CC(=O)NCCCCCC(=O)NCCCCC[C@H]2C(=O)N[C@@H](Cc3ccc(O)cc3)C(=O)N[C@H](Cc3c[nH]c4ccccc34)C(=O)N[C@@H](CCCCN)C(=O)N[C@@H]([C@@H](C)O)C(=O)N[C@@H](Cc3ccccc3)C(=O)N2C)CC(=O)[O]1 [RB-0003057] | < 1 nM
C[C@@H](O)[C@@H]1NC(=O)[C@H](CCCCN)NC(=O)[C@@H](Cc2c[nH]c3ccccc23)NC(=O)[C@H]([C@@H](C)c2ccccc2)NC(=O)[C@H](CCSCC(=O)NCCCCCCNC(=O)CN2CCN3CCN4CCN(CC2)CC(=O)[O][Lu]([O]C(=O)C3)[O]C(=O)C4)N(C)C(=O)[C@H](Cc2ccccc2)NC1=O [RB-0003136] (cyclo(F[NMehCys](DOTA(Lu)NH(CH2)6NHCOCH2)[X4][dW]KT)) | 1 to 3.33 nM
C[C@H](c1ccccc1)[C@@H]1NC(=O)[C@H](CCSCC(=O)NCCCCCCNC(=O)CN2CCN3CCN4CCN(CC2)CC(=O)[O][Lu]([O]C(=O)C3)[O]C(=O)C4)N(C)C(=O)[C@H](Cc2ccccc2)NC(=O)[C@H]([C@@H](C)O)NC(=O)[C@H](CCCCN)NC(=O)[C@@H](Cc2c[nH]c3ccccc23)NC1=O [RB-0003137] (cyclo(F[NMehCys](DOTA(Lu)NH(CH2)6NHCOCH2)[Phe(3R-Me)][dW]KT)) | < 1 nM
C[C@@H](O)[C@@H]1NC(=O)[C@H](CCCCN)NC(=O)[C@@H]([C@@H](C)c2c[nH]c3ccccc23)NC(=O)[C@H](Cc2ccc(O)cc2)NC(=O)[C@H](CCSCC(=O)NCCCCCCNC(=O)CN2CCN3CCN4CCN(CC2)CC(=O)[O][Lu]([O]C(=O)C3)[O]C(=O)C4)N(C)C(=O)[C@H](Cc2ccccc2)NC1=O [RB-0003148] (cyclo(F[NMehCys](DOTA(Lu)NH(CH2)6NHCOCH2)Y[dTrp(βS-Me)]KT)) | < 1 nM
C[C@@H](O)[C@@H]1NC(=O)[C@H](CCCCN)NC(=O)[C@@H](Cc2c[nH]c3ccccc23)NC(=O)[C@H](Cc2ccc(O)cc2)NC(=O)[C@H](CCSCC(=O)NCCCCCCNC(=O)CN2CCN3CCN4CCN(CC2)CC(=O)[O][Lu]([O]C(=O)C3)[O]C(=O)C4)N(C)C(=O)[C@H](Cc2cccnc2)NC1=O [RB-0003276] (cyclo([3Pal][NMehCys](DOTA(Lu)NH(CH2)6NHCOCH2)Y[dW]KT)) | 3.33 to 10 nM
C[C@@H](O)[C@@H]1NC(=O)[C@H](CCCCN)NC(=O)[C@@H](Cc2c[nH]c3ccccc23)NC(=O)[C@H](Cc2ccc(O)cc2)NC(=O)[C@H](CCSCC(=O)NCCCCCCNC(=O)CN2CCN3CCN4CCN(CC2)CC(=O)[O][Lu]([O]C(=O)C3)[O]C(=O)C4)N(C)C(=O)[C@H](Cc2ccncc2)NC1=O [RB-0003277] (cyclo([4Pal][NMehCys](DOTA(Lu)NH(CH2)6NHCOCH2)Y[dW]KT)) | 1 to 3.33 nM
C[C@@H](O)[C@@H]1NC(=O)[C@H](CCCCN)NC(=O)[C@@H](Cc2c[nH]c3ccccc23)NC(=O)[C@H](Cc2ccc(O)cc2)NC(=O)[C@H](CCSCC(=O)NCCCCCCNC(=O)CN2CCN3CCN4CCN(CC2)CC(=O)[O][Lu]([O]C(=O)C3)[O]C(=O)C4)N(C)C(=O)[C@H]([C@@H](C)c2ccccc2)NC1=O [RB-0003278] (cyclo(KT[X4][NMehCys](DOTA(Lu)NH(CH2)6NHCOCH2)Y[dW])) | 1 to 3.33 nM
C[C@@H](O)[C@@H]1NC(=O)[C@H](CCCCN)NC(=O)[C@@H](Cc2c[nH]c3ccccc23)NC(=O)[C@H](Cc2ccc(O)cc2)NC(=O)[C@H](CCSCC(=O)NCCCCCCNC(=O)CN2CCN3CCN4CCN(CC2)CC(=O)[O][Lu]([O]C(=O)C3)[O]C(=O)C4)N(C)C(=O)[C@H](Cc2ccc(O)nc2)NC1=O [RB-0003279] (cyclo(KT[X22][NMehCys](DOTA(Lu)NH(CH2)6NHCOCH2)Y[dW])) | 3.33 to 10 nM
C[C@@H](O)[C@@H]1NC(=O)[C@H](CCCCN)NC(=O)[C@@H](Cc2c[nH]c3ccccc23)NC(=O)[C@H](Cc2ccc(O)c(F)c2)NC(=O)[C@H](CCSCC(=O)NCCCCCCNC(=O)CN2CCN3CCN4CCN(CC2)CC(=O)[O][Lu]([O]C(=O)C3)[O]C(=O)C4)N(C)C(=O)[C@H](Cc2ccccc2)NC1=O [RB-0003280] (cyclo(F[NMehCys](DOTA(Lu)NH(CH2)6NHCOCH2)[Tyr(3-F)][dW]KT)) | < 1 nM
CC(c1ccccc1)[C@@H]1NC(=O)[C@H]([C@@H](C)O)NC(=O)[C@H](CCCCN)NC(=O)[C@@H](Cc2c[nH]c3ccccc23)NC(=O)[C@H](Cc2ccc(O)cc2)NC(=O)[C@H](CCSCC(=O)NCCCCCCNC(=O)CN2CCN3CCN4CCN(CC2)CC(=O)[O][Lu]([O]C(=O)C3)[O]C(=O)C4)N(C)C1=O (stereo partly drawn) [RB-0003281] (cyclo(KT[X21][NMehCys](DOTA(Lu)NH(CH2)6NHCOCH2)Y[dW])) | 3.33 to 10 nM
C[C@@H](O)[C@@H]1NC(=O)[C@H](CCCCN)NC(=O)[C@@H](Cc2c[nH]c3ccccc23)NC(=O)[C@H](Cc2cccc(C(N)=O)c2)NC(=O)[C@H](CCSCC(=O)NCCCCCCNC(=O)CN2CCN3CCN4CCN(CC2)CC(=O)[O][Lu]([O]C(=O)C3)[O]C(=O)C4)N(C)C(=O)[C@H](Cc2ccccc2)NC1=O [RB-0003302] (cyclo(F[NMehCys](DOTA(Lu)NH(CH2)6NHCOCH2)[Phe(3-CONH2)][dW]KT)) | 3.33 to 10 nM
C[C@@H](O)[C@@H]1NC(=O)[C@H](CCCCN)NC(=O)[C@@H](Cc2c[nH]c3ccccc23)NC(=O)[C@H](Cc2ccccc2C(N)=O)NC(=O)[C@H](CCSCC(=O)NCCCCCCNC(=O)CN2CCN3CCN4CCN(CC2)CC(=O)[O][Lu]([O]C(=O)C3)[O]C(=O)C4)N(C)C(=O)[C@H](Cc2ccccc2)NC1=O [RB-0003304] (cyclo(F[NMehCys](DOTA(Lu)NH(CH2)6NHCOCH2)[Phe(2-CONH2)][dW]KT)) | 3.33 to 10 nM

Same assay, conditions: read-out: SSTR2 Ki; radioligand competition, [125I]-Tyr11-Somatostatin 0.1 nM, membrane extracts; Ki from IC50 by Cheng Prusoff

SMILES | Ki
C[C@@H](O)[C@@H]1NC(=O)[C@H](CCCCN)NC(=O)[C@@H](Cc2c[nH]c3ccccc23)NC(=O)[C@H](Cc2ccc(O)cc2)NC(=O)[C@H](CCCCC(=O)NCCCCCCNC(=O)CN2CCN(CC(=O)O)CCN(CC(=O)O)CCN(CC(=O)O)CC2)N(C)C(=O)[C@H](Cc2ccccc2)NC1=O [RB-0003055] | < 1 nM
